# From PMC6277767, “Broad and Region-Specific Impacts of the Synthetic Cannabinoid CP 55,940 in Adolescent and Adult Female Mouse Brains” (Frontiers in Molecular Neuroscience, 2018)
# Test system: CD1 female mouse brain lipidome
# Experiment: Brain-region lipid levels (HPLC/MS/MS lipidomics) 2 h after single i.p. 3 mg/kg CP 55,940 vs vehicle
# Assay type: in vivo
# Method: The Bloomington Institutional Animal Care and Use Committee of Indiana University reviewed and approved the animal procedures. Female mice from the CD1 strain were utilized to match our study examining THC’s effects on the brain lipidome ([Leishman et al., 2018]). Mice were given a single i.p. injection of either 3 mg/kg CP or 1:1:18 cremophor:ethanol:saline vehicle (please refer to the section “3 mg/kg CP Is Relevant for Synthetic Cannabinoid Abuse and Has Stronger Effects on the Female Mouse Brain Lipidome During Adolescence” for a justification of dose and use of female mice). Three different age groups were given injections: PND 35 and PND 50 adolescents, and adult mice (PND 113). At least eight mice in each age group received CP and at least eight received vehicle. Matching the THC study time course ([Leishman et al., 2018]), mice were sacrificed via rapid decapitation 2 h after injection. Brains were immediately removed and flash-frozen in liquid nitrogen, and then stored at -80°C until dissections were performed. Brains were dissected on an ice-cold dissection plate into the following regions: STR, HIPP, CER, THAL, CTX, HYP, MID, and STEM. These abbreviations for these brain areas will be used exclusively when discussing the results generated by these specific dissections. Each dissected area was immediately placed in liquid nitrogen and then stored at -80°C until used for lipid extraction.
# Tissue extracts were performed as previously described ([Bradshaw et al., 2006]; [Stuart et al., 2013]; [Raboune et al., 2014]; [Leishman et al., 2016a],[b], [2017], [2018]). First, samples were shock frozen in liquid nitrogen, weighed, and transferred to a centrifuge tube. The mass of the largest sample was multiplied by 50 to determine how many milliliters of HPLC-grade methanol (Fisher, Fair Lawn, NJ, United States) to add. Then, samples were spiked with 500 pmol deuterium-labeled NAGly (d8NAGly; Cayman Chemical, Ann Arbor, MI, United States). Samples were placed on ice in darkness for 2 h then individually homogenized and centrifuged at 19,000 × g for 20 min at 20°C. Supernatants were diluted with HPLC water (purified in house) to make a solution of 75% water, 25% supernatant. Lipids were partially purified on C18 solid phase extraction columns (Agilent, Palo Alto, CA, United States). A series of four elutions with 1.5 mL of 60%, 75%, 85%, and 100% methanol were collected ([Stuart et al., 2013]; [Leishman et al., 2016a],[b], [2018]).
# As previously described ([Bradshaw et al., 2006]; [Tan et al., 2006]; [Smoum et al., 2010]; [Stuart et al., 2013]; [Tortoriello et al., 2013]; [Raboune et al., 2014]; [Leishman et al., 2016a],[b], [2017], [2018]), samples were analyzed using an Applied Biosystems API 3000 triple quadrupole mass spectrometer with electrospray ionization (Foster City, CA, United States). Using an Agilent XDB-C18 reversed phase analytical column and optimized mobile phase gradients, 20 μL from each elution were chromatographed. Two Shimadzu 10ADvp pumps (Columbia, MD, United States) provided the pressure for gradient elution. Mobile phase A: 20% methanol, 80% water (v/v) and 1 mM ammonium acetate (Sigma, St. Louis, MO, United States). Mobile phase B: 100% methanol, 1 mM ammonium acetate. Every method run began with 0% mobile phase B, reached 100% mobile phase B flowing at 0.2 mL/min, and gradually returned to 0% mobile phase B.
# This screening library will be referred to as the lipidome when discussing data from this study. HPLC/MS/MS data were analyzed using Analyst software (Applied Biosystems) ([Bradshaw et al., 2006]; [Tan et al., 2006]; [Stuart et al., 2013]; [Tortoriello et al., 2013]; [Raboune et al., 2014]; [Leishman et al., 2016a],[b], [2017], [2018]). Chromatograms (Supplementary Figure 3) were generated by determining the retention time of analytes from the analytical column with a [M-1] or [M+1] parent peak and a fragmentation peak corresponding to the programmed values. […]
smiles,measurement,setting,value
"CCCCCCC(C)(C)c1ccc([C@@H]2C[C@H](O)CC[C@H]2CCCO)c(O)c1 [CP 55,940]",changes in lipid levels that were decreases,PND 50 MID,two
same,number of lipids changed,"PND 50 MID, 62 detected",26
same,2-linoleoyl glycerol level vs vehicle,PND 50 STEM,↓ (1-1.49 times lower than vehicle)
same,2-oleoyl glycerol level vs vehicle,PND 50 STEM,↓ (1-1.49 times lower than vehicle)
same,2-palmitoyl glycerol level vs vehicle,PND 50 STEM,↓ (1-1.49 times lower than vehicle)
same,6-ketoPGF1α level vs vehicle,PND 50 STEM,↓ (1-1.49 times lower than vehicle)
same,Linoleic acid level vs vehicle,PND 50 STEM,↓ (1-1.49 times lower than vehicle)
same,N-arachidonoyl GABA level vs vehicle,PND 50 STEM,↓ (1-1.49 times lower than vehicle)
same,N-arachidonoyl phenylalanine level vs vehicle,PND 50 STEM,↑ (1-1.49 times higher than vehicle)
same,N-arachidonoyl serine level vs vehicle,PND 50 STEM,↓ (1-1.49 times lower than vehicle)
same,N-arachidonoyl taurine level vs vehicle,PND 50 STEM,↓ (1-1.49 times lower than vehicle)
same,N-arachidonoyl tyrosine level vs vehicle,PND 50 STEM,↓ (1-1.49 times lower than vehicle)
same,N-oleoyl methionine level vs vehicle,PND 50 STEM,↓ (1-1.49 times lower than vehicle)
same,N-palmitoyl leucine level vs vehicle,PND 50 STEM,↑ (1-1.49 times higher than vehicle)
same,N-palmitoyl tyrosine level vs vehicle,PND 50 STEM,↑ (1-1.49 times higher than vehicle)
same,Oleic Acid level vs vehicle,PND 50 STEM,↓ (1-1.49 times lower than vehicle)
same,PGE2 level vs vehicle,PND 50 STEM,↓ (1-1.49 times lower than vehicle)
same,PGF2α level vs vehicle,PND 50 STEM,↓ (1-1.49 times lower than vehicle)
same,2-arachidonoyl glycerol level vs vehicle,PND 50 STR,↓ (1-1.49 times lower than vehicle)
same,2-linoleoyl glycerol level vs vehicle,PND 50 STR,↓ (1-1.49 times lower than vehicle)
same,Arachidonic acid level vs vehicle,PND 50 STR,↓ (1-1.49 times lower than vehicle)
same,Linoleic acid level vs vehicle,PND 50 STR,↓ (1-1.49 times lower than vehicle)
same,N-arachidonoyl GABA level vs vehicle,PND 50 STR,↓ (1-1.49 times lower than vehicle)
same,N-arachidonoyl glycine level vs vehicle,PND 50 STR,↓↓ (1.50-1.99 times lower than vehicle)
same,N-arachidonoyl phenylalanine level vs vehicle,PND 50 STR,↓ (1-1.49 times lower than vehicle)
same,N-arachidonoyl taurine level vs vehicle,PND 50 STR,↓ (1-1.49 times lower than vehicle)
same,N-docosahexaenoyl GABA level vs vehicle,PND 50 STR,↓ (1-1.49 times lower than vehicle)
same,N-docosahexaenoyl glycine level vs vehicle,PND 50 STR,↓↓ (1.50-1.99 times lower than vehicle)
same,N-palmitoyl leucine level vs vehicle,PND 50 STR,↑ (1-1.49 times higher than vehicle)
same,N-palmitoyl tyrosine level vs vehicle,PND 50 STR,↑ (1-1.49 times higher than vehicle)
same,N-palmitoyl valine level vs vehicle,PND 50 STR,↑↑ (1.50-1.99 times higher than vehicle)
same,Oleic Acid level vs vehicle,PND 50 STR,↓ (1-1.49 times lower than vehicle)
same,PGF2α level vs vehicle,PND 50 STR,↑ (1-1.49 times higher than vehicle)
same,2-arachidonoyl glycerol level vs vehicle,PND 50 THAL,↓ (1-1.49 times lower than vehicle)
same,2-linoleoyl glycerol level vs vehicle,PND 50 THAL,↓ (1-1.49 times lower than vehicle)
same,2-oleoyl glycerol level vs vehicle,PND 50 THAL,↓ (1-1.49 times lower than vehicle)
same,6-ketoPGF1α level vs vehicle,PND 50 THAL,↑↑ (1.50-1.99 times higher than vehicle)
same,Arachidonic acid level vs vehicle,PND 50 THAL,↓ (1-1.49 times lower than vehicle)
same,Linoleic acid level vs vehicle,PND 50 THAL,↓ (1-1.49 times lower than vehicle)
same,N-arachidonoyl GABA level vs vehicle,PND 50 THAL,↓ (1-1.49 times lower than vehicle)
same,N-arachidonoyl ethanolamine level vs vehicle,PND 50 THAL,↓ (1-1.49 times lower than vehicle)
same,N-arachidonoyl glycine level vs vehicle,PND 50 THAL,↓↓ (1.50-1.99 times lower than vehicle)
same,N-arachidonoyl phenylalanine level vs vehicle,PND 50 THAL,↓↓ (1.50-1.99 times lower than vehicle)
same,N-arachidonoyl taurine level vs vehicle,PND 50 THAL,↓ (1-1.49 times lower than vehicle)
same,N-arachidonoyl tyrosine level vs vehicle,PND 50 THAL,↓ (1-1.49 times lower than vehicle)
same,N-docosahexaenoyl GABA level vs vehicle,PND 50 THAL,↓ (1-1.49 times lower than vehicle)
same,N-linoleoyl GABA level vs vehicle,PND 50 THAL,↓↓ (1.50-1.99 times lower than vehicle)
same,N-palmitoyl leucine level vs vehicle,PND 50 THAL,↑ (1-1.49 times higher than vehicle)
same,N-palmitoyl serine level vs vehicle,PND 50 THAL,↓ (1-1.49 times lower than vehicle)
same,N-stearoyl serine level vs vehicle,PND 50 THAL,↓ (1-1.49 times lower than vehicle)
same,Oleic Acid level vs vehicle,PND 50 THAL,↓ (1-1.49 times lower than vehicle)
same,PGE2 level vs vehicle,PND 50 THAL,↓ (1-1.49 times lower than vehicle)
same,PGF2α level vs vehicle,PND 50 THAL,↓ (1-1.49 times lower than vehicle)
same,changes in NAEs (all decreases),PND 50 brain,16
same,changes in lipoamines derived from AA,PND 50 brain,41
same,decreases in 2-acyl glycerol levels,PND 50 brain,17
same,decreases in PG levels,PND 50 brain,11
same,decreases in free fatty acid levels,PND 50 brain,16
same,increases in PG levels,PND 50 brain,7
same,percentage of detected lipids modified with acute CP,"PND 50 brain, 450 detected",31.33%
same,total changes in lipid levels across the eight regions,adult,97
same,2-arachidonoyl glycerol level vs vehicle,adult CER,↓ (1-1.49 times lower than vehicle)
same,2-linoleoyl glycerol level vs vehicle,adult CER,↓↓ (1.50-1.99 times lower than vehicle)
same,2-oleoyl glycerol level vs vehicle,adult CER,↓ (1-1.49 times lower than vehicle)
same,6-ketoPGF1α level vs vehicle,adult CER,↓ (1-1.49 times lower than vehicle)
same,Arachidonic acid level vs vehicle,adult CER,↓ (1-1.49 times lower than vehicle)
same,Linoleic acid level vs vehicle,adult CER,↓↓ (1.50-1.99 times lower than vehicle)
same,N-arachidonoyl GABA level vs vehicle,adult CER,↓↓ (1.50-1.99 times lower than vehicle)
same,N-arachidonoyl ethanolamine level vs vehicle,adult CER,↓↓ (1.50-1.99 times lower than vehicle)
same,N-arachidonoyl phenylalanine level vs vehicle,adult CER,↓↓↓ (2-2.99 times lower than vehicle)
same,N-arachidonoyl taurine level vs vehicle,adult CER,↓ (1-1.49 times lower than vehicle)
same,N-docosahexaenoyl GABA level vs vehicle,adult CER,↓ (1-1.49 times lower than vehicle)
same,N-docosahexaenoyl ethanolamine level vs vehicle,adult CER,↓ (1-1.49 times lower than vehicle)
same,N-linoleoyl GABA level vs vehicle,adult CER,↓ (1-1.49 times lower than vehicle)
same,N-linoleoyl ethanolamine level vs vehicle,adult CER,↓↓ (1.50-1.99 times lower than vehicle)
same,N-oleoyl serine level vs vehicle,adult CER,↓ (1-1.49 times lower than vehicle)
same,N-oleoyl valine level vs vehicle,adult CER,↑↑↑ (2-2.99 times higher than vehicle)
same,N-palmitoyl tyrosine level vs vehicle,adult CER,↓ (1-1.49 times lower than vehicle)
same,Oleic Acid level vs vehicle,adult CER,↓↓ (1.50-1.99 times lower than vehicle)
same,PGE2 level vs vehicle,adult CER,↓ (1-1.49 times lower than vehicle)
same,PGF2α level vs vehicle,adult CER,↓ (1-1.49 times lower than vehicle)
same,changes in lipid levels that were decreases,adult CER,20
same,changes in lipid levels that were increases,adult CER,1
same,phosphoLEA level vs vehicle,adult CER,↓ (1-1.49 times lower than vehicle)
same,number of lipids changed,"adult CER, 53 detected",21
same,2-linoleoyl glycerol level vs vehicle,adult CTX,↓ (1-1.49 times lower than vehicle)
same,6-ketoPGF1α level vs vehicle,adult CTX,↓ (1-1.49 times lower than vehicle)
same,Arachidonic acid level vs vehicle,adult CTX,↓ (1-1.49 times lower than vehicle)
same,N-arachidonoyl taurine level vs vehicle,adult CTX,↓ (1-1.49 times lower than vehicle)
same,N-linoleoyl GABA level vs vehicle,adult CTX,↓ (1-1.49 times lower than vehicle)
same,N-palmitoyl valine level vs vehicle,adult CTX,↑ (1-1.49 times higher than vehicle)
same,N-stearoyl phenylalanine level vs vehicle,adult CTX,↓↓ (1.50-1.99 times lower than vehicle)
same,PGF2α level vs vehicle,adult CTX,↓ (1-1.49 times lower than vehicle)
same,number of lipids changed,"adult CTX, 58 detected",eight
same,2-linoleoyl glycerol level vs vehicle,adult HIPP,↓ (1-1.49 times lower than vehicle)
same,N-arachidonoyl GABA level vs vehicle,adult HIPP,↓ (1-1.49 times lower than vehicle)
same,N-arachidonoyl alanine level vs vehicle,adult HIPP,↓ (1-1.49 times lower than vehicle)
same,N-arachidonoyl glycine level vs vehicle,adult HIPP,↓ (1-1.49 times lower than vehicle)
same,N-arachidonoyl phenylalanine level vs vehicle,adult HIPP,↓↓ (1.50-1.99 times lower than vehicle)
same,N-docosahexaenoyl GABA level vs vehicle,adult HIPP,↓ (1-1.49 times lower than vehicle)
same,N-oleoyl GABA level vs vehicle,adult HIPP,↓ (1-1.49 times lower than vehicle)
same,N-oleoyl phenylalanine level vs vehicle,adult HIPP,↓ (1-1.49 times lower than vehicle)
